# Tested on: mixture of E. coli and P. aeruginosa
# Assay: Disinfection of contaminated surgical instruments and objects
# Format: cell-based, E. coli (ATCC 11229) and P. aeruginosa (ATCC 15442)
# Conditions: immersion 30 minutes; instruments contaminated with 7.0×10^9 bacteria
# Procedure: Cultures: E. coli (ATCC11229) and P. aeruginosa (ATCC15442) from the American Type Culture Collection (ATCC) were grown in Tryptic Soy Broth (TSB) according to the instructions provided by ATCC.
# Sterile surgical instruments (probes, scalpel handles, and forceps) and other objects were inoculated with 20 μL of the concentrated culture and allowed to dry for 30 minutes in a laminar flow hood. Contaminated surgical instruments were treated with SAFI (various copper or copper/zinc mixes at pH 3.2 or pH 0.2) by immersing the objects in 40 mL sterile water containing 1, 10, or 100 ppm SAFI for time periods of 30 minutes −22 hours. Comparison treatments included no treatment (control), boiling the instruments in water for 30 minutes, immersing the instruments in 40 mL of 70% EtOH for 30 minutes, or autoclaving the instruments at 15 lbs/in^2 at 121° C. for 20 minutes. […]
# The ability of a solution of SAFI to disinfect contaminated surgical instruments was determined by contaminating forceps, scalpel handles, and probes with 20 uL of a concentrated mixture of E. coli and P. aeruginosa and incubating the contaminated instruments in a SAFI solution for 30 minutes. […] Bacteria present after overnight incubation were determined by standard plate counts. […]
smiles,measurement,value
"CCO [70% ethanol, ethanol]",effectiveness in killing bacteria (comparison treatment),effective in killing bacteria

# Source: patent US20160150792A1, “WATER PURIFICATION COMPOSITIONS AND APPLICATIONS FOR SAME” (priority 2011, published 2016)
